Data taken from patent publication US20020182614A1, “Expression analysis of inhibitor of differentiation nucleic acids and polypeptides useful in the diagnosis and treatment of prostate cancer” (priority 2000, published 2002).

Key:
LNCaP cells = tested on: LNCaP cells
Method: Human prostatic cancer cell lines LNCaP, DU-145, PC-3, and Tsu-prl were obtained from ATCC. LNCaP cancer cells were maintained in humidified atmosphere of 5% CO2 in air in RPMI 1640 medium supplemented with 10% fetal calf serum (Life Technologies, Inc, Rockville, Md.), 3 mM L-glutamine, 100 μg/ml streptomycin and 100 units/ml penicillin. Other lines were maintained in DMEM containing 3 mM L-glutamine, 100 μg/ml streptomycin, 100 units/ml penicillin, and 10% FCS in humidified atmosphere of 5% CO2. To examine the effects of steroids, cells were cultured in RPMI 1640 medium containing 5% FCS treated with dextran coated charcoal (Hyclone, Logan, Utah) for 24 hs before treatment. Cells were grown in the absence or presence of 10 nM DHT for 0, 2, 4, 6, 12, 24, 48, and 72 hs. They were collected and frozen at each time point. Two hundred μl of medium were collected from each flask for PSA assay.
To verify the effect of DHT on the growth of LNCaP cells, cells at 3,000 cells/well were plated in 96-well plates for 24 hs before treatment with DHT. After 72 hs, MTT was added to each well and incubated at 37° C. for four hs. At the end of incubation, the supernatant was removed and 100 μl DMSO was added to each well to dissolve […]. Plates were subsequently read in a plate reader at […].

PSA [1] = conditions: LNCaP cells, mRNA
PSA [2] = tested on: PSA
ID-3 = conditions: LNCaP cells, in the presence of androgen
ID-1 = conditions: LNCaP cells, in the presence of androgen

**Q.** `C[C@]12CCC(=O)C[C@@H]1CC[C@@H]1[C@@H]2CC[C@]2(C)[C@@H](O)CC[C@@H]12` [DHT, dihydrotestosterone] was tested. Which growth-stimulatory effect (LNCaP cells; 10 nM DHT) did it give?
**A.** robust growth-stimulatory effect

**Q.** And the “growth of LNCaP cells” value (LNCaP cells; MTT assay, FIG. 1A)?
**A.** stimulated

**Q.** And the “PSA expression increase relative to control” value (PSA [1]; 12 hours)?
**A.** 3 fold

**Q.** And the “PSA expression induction relative to control” value (PSA [1]; 72 hours)?
**A.** approximately 4 fold

**Q.** And the PSA production (PSA [2])?
**A.** increased in a dose-dependent manner

**Q.** And the “time at which PSA signal was first detected” value (PSA [2])?
**A.** 12 h

**Q.** And the “time of maximal PSA level” value (PSA [2])?
**A.** about 48 hs

**Q.** And the ID-3 expression level (ID-3)?
**A.** reduced

**Q.** And the ID-1 expression level (ID-1)?
**A.** reduced
